ChEMBL document CHEMBL1139273, “Aryl aminopyrazole benzamides as oral non-steroidal selective glucocorticoid receptor agonists” (Bioorg Med Chem Lett, 2009)

Legend:
[1] = test system: A549; assay: Inhibition of TNF-induced NFkappaB activation in human A549 cells after 15 hrs relative to Dexamethasone; format: cell-based; parameters: scale not given: the % may be the effect or the level left
[2] = molecular target: T1, Glucocorticoid receptor (Homo sapiens, UniProt P04150)
T1 sequence (P04150 whole entry): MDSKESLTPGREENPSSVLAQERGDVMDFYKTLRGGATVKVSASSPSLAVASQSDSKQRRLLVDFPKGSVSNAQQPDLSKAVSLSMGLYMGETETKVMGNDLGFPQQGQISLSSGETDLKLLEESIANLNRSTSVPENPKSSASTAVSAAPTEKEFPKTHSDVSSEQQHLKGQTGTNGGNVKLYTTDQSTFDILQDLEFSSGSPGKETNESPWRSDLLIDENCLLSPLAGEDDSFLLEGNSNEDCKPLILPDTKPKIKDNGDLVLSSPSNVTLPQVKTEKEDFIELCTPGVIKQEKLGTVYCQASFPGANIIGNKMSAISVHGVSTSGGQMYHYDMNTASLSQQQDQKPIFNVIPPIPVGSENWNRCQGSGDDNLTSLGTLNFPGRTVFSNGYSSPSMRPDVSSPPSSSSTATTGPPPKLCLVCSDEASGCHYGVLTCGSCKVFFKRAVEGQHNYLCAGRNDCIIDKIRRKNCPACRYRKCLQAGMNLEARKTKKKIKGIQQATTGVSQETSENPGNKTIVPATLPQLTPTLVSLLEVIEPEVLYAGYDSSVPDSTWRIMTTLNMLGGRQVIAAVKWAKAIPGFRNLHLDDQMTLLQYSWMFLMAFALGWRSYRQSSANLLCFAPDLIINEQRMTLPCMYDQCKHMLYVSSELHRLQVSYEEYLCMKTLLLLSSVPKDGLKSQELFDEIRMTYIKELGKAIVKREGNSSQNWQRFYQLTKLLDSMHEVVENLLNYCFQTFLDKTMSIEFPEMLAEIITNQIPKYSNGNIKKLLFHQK
Description: Agonist activity at human glucocorticoid receptor in human A549 cells assessed as transcriptional activity by MMTV luciferase reporter gene assay

[3] = Inhibition of TNF-induced NF-kappaB activation in human A549 cells after 15 hrs; settings: for IC50: Homo sapiens, A549, 15 h, read-out: pIC50 (converted); for pIC50: a549
[4] = molecular target: T1, Glucocorticoid receptor; remark: listed apart in the source
Description: Displacement of fluorescent labelled Dexamethasone from glucocorticoid receptor

[5] = Clearance in Sprague-Dawley rat at 1 mg/kg, iv and 1 mg/kg, po; format: ADME, organism-based; settings: in vivo
[6] = Volume of distribution at steady state in Sprague-Dawley rat at 1 mg/kg, iv and 1 mg/kg, po; format: ADME, organism-based; settings: in vivo, read-out: Vdss
[7] = Oral bioavailability in Sprague-Dawley rat at 1 mg/kg; format: ADME, organism-based; settings: in vivo
[8] = molecular target: Cytochrome P450 3A4 (Homo sapiens, UniProt P08684)
Sequence of Cytochrome P450 3A4 (P08684 whole entry): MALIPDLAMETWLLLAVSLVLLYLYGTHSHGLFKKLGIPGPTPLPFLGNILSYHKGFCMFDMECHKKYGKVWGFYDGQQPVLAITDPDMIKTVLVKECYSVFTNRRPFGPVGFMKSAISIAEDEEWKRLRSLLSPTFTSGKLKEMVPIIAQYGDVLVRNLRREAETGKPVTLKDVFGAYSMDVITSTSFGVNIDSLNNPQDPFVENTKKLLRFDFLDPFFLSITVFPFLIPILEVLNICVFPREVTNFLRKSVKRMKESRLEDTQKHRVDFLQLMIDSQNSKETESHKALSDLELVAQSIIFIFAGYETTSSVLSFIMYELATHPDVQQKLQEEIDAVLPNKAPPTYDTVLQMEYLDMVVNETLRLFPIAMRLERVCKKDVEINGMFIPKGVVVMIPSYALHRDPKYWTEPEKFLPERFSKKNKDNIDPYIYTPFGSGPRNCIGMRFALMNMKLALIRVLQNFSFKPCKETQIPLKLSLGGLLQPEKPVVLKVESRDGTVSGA

[9] = molecular target: Albumin (Homo sapiens, UniProt P02768); assay: Binding affinity to human serum albumin by fast gradient HPLC; format: ADME; settings: isolated protein
Sequence of Albumin (P02768 whole entry): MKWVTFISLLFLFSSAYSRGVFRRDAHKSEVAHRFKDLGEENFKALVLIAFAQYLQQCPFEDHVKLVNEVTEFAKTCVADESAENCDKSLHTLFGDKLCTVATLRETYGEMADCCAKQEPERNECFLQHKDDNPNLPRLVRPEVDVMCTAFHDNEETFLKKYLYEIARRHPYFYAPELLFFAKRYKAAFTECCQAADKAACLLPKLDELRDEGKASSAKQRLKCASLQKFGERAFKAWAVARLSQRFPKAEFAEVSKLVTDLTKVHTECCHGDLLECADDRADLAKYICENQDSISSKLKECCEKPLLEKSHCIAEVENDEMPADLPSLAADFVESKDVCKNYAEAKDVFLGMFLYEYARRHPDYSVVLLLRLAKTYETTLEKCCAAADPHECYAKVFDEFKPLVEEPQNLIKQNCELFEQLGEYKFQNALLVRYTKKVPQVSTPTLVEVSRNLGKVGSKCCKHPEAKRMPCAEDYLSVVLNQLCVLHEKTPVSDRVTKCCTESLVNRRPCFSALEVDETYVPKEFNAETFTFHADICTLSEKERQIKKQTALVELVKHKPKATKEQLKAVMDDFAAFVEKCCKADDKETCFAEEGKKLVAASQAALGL

[10] = molecular target: Cytochrome P450 2D6 (Homo sapiens, UniProt P10635); assay: Inhibition of CYP2D6; format: ADME
Sequence of Cytochrome P450 2D6 (P10635 whole entry): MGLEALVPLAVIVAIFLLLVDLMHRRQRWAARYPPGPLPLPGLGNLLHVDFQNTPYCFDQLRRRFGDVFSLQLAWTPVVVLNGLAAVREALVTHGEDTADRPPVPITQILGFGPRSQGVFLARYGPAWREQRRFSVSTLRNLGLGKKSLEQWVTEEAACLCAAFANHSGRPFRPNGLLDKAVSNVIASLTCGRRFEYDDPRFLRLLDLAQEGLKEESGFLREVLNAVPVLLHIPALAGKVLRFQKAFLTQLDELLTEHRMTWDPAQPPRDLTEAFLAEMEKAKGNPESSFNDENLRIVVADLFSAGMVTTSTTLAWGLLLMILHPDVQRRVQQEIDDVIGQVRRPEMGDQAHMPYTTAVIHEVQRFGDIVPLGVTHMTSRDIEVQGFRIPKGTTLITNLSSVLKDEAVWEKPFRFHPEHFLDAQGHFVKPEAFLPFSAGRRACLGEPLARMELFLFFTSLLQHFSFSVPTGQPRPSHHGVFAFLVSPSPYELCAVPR

[11] = molecular target: Cytochrome P450 2C19 (Homo sapiens, UniProt P33261); assay: Inhibition of CYP2C19; format: ADME
Sequence of Cytochrome P450 2C19 (P33261 whole entry): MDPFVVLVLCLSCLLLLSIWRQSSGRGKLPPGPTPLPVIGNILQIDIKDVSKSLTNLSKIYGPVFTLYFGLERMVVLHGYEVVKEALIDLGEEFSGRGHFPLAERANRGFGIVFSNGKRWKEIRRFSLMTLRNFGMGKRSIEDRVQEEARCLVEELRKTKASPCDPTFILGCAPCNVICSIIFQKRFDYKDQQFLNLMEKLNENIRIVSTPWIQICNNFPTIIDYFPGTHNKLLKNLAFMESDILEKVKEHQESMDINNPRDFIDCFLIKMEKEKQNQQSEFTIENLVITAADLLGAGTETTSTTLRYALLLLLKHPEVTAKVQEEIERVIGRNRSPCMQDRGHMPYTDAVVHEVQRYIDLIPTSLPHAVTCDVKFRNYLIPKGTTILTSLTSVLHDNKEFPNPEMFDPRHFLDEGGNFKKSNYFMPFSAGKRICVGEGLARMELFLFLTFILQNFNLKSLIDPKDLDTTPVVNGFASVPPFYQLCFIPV

[12] = molecular target: T2, Cytochrome P450 1A2 (Homo sapiens, UniProt P05177); assay: Inhibition of CYP1A2; format: ADME
T2 sequence (P05177 whole entry): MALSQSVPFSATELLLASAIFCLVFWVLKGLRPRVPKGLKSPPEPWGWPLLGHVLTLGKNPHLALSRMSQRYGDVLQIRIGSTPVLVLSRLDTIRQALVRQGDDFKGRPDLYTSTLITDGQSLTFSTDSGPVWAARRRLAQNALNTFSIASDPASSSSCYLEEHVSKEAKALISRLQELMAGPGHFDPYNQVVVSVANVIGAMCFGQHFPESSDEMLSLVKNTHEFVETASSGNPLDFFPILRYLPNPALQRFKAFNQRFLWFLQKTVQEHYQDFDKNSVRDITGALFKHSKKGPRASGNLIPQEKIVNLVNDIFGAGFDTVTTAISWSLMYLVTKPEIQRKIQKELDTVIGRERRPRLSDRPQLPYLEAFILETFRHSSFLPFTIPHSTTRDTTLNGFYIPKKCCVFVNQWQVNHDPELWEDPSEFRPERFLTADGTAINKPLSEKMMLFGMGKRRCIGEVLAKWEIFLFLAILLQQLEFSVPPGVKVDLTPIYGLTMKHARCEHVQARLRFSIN

[13] = Protein binding in human plasma by ultrafiltration; format: ADME, cell-free; settings: read-out: PPB (converted)
[14] = molecular target: Cytochrome P450 2C9 (Homo sapiens, UniProt P11712); assay: Inhibition of CYP2C9; format: ADME
Sequence of Cytochrome P450 2C9 (P11712 whole entry): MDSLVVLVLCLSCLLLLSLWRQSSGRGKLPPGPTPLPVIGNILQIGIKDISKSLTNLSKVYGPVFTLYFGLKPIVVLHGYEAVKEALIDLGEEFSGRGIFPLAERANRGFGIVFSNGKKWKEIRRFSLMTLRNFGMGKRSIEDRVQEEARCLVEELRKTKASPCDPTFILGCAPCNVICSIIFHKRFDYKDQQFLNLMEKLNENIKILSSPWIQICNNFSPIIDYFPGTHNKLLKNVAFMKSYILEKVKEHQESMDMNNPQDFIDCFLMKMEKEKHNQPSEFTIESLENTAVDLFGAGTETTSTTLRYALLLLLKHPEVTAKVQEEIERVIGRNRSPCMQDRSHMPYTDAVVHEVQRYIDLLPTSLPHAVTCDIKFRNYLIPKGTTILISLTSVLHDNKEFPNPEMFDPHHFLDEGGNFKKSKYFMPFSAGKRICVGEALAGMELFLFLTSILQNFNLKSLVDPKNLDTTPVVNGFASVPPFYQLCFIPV

Row | SMILES | Activity [1] | EC50 [2] | IC50 [3] | IC50 [4] | further results
1 | CCN(CC(O)(CNC(=O)c1cnn(-c2ccc(F)cc2)c1N)C(F)(F)F)C(=O)c1cccnc1Cl (racemic) | 75% | 794 nM | 251 nM | 39.8 nM | –
2 | CCCN(CC(O)(CNC(=O)c1cnn(-c2ccc(F)cc2)c1N)C(F)(F)F)C(=O)c1c(F)cccc1F (racemic) | 96% | 25.1 nM | 15.8 nM | 15.8 nM | clearance [5]: 36 mL/min/kg; Vd [6]: 5.3 L/kg; bioavailability [7]: 16%
3 | CCN(CC(O)(CNC(=O)c1cnn(-c2ccc(F)cc2)c1N)C(F)(F)F)C(=O)c1ccccc1F (stereo not given) | 98% | 20 nM | 12.6 nM | 12.6 nM | –
4 | CCN(CC(O)(CNC(=O)c1cnn(-c2ccc(F)cc2)c1N)C(F)(F)F)C(=O)c1ncccc1Cl (stereo not given) [listing 1 of 2 here] | – | – | 10 nM | – | IC50 [8]: 4000 nM; Activity [9]: 83%; IC50 [10]: 100000 nM; IC50 [11]: 100000 nM; IC50 [12]: 100000 nM; fraction unbound [13]: 0.15; IC50 [14]: 14000 nM
5 | Nc1c(C(=O)NCC(O)(CNC(=O)c2c(F)cccc2F)C(F)(F)F)cnn1-c1ccc(F)cc1 (racemic) | 80% | > 6310 nM | 316 nM | 398 nM | –
6 | CCN(CC(O)(CNC(=O)c1cnn(-c2ccc(F)cc2)c1N)C(F)(F)F)C(=O)c1c(Cl)cccc1Cl (stereo not given) | 101% | 2 nM | 0.501 nM | 3.16 nM | IC50 [8]: 700 nM; Activity [9]: 95%; IC50 [10]: 89000 nM; IC50 [11]: 7000 nM; IC50 [12]: 100000 nM; fraction unbound [13]: 0.01; IC50 [14]: 800 nM
7 | C[C@]12C=CC(=O)C=C1CC[C@@H]1[C@@H]2[C@@H](O)C[C@@]2(C)[C@H]1CC[C@]2(O)C(=O)CO [PREDNISOLONE] | 100% | – | 10 nM | – | –
8 | CCN(CC(O)(CNC(=O)c1cnn(-c2ccc(F)cc2)c1N)C(F)(F)F)C(=O)c1ccccc1 (stereo in doubt; 13c) [listing 1 of 2 here] | 94% | – | – | – | –
9 | CN(CC(O)(CNC(=O)c1cnn(-c2ccc(F)cc2)c1N)C(F)(F)F)C(=O)c1c(F)cccc1F (racemic) | 95% | 251 nM | 50.1 nM | 79.4 nM | IC50 [8]: 100000 nM; IC50 [10]: 36000 nM; IC50 [11]: 49000 nM; IC50 [12]: 100000 nM; IC50 [14]: 10000 nM
10 | CCN(CC(O)(CNC(=O)c1cnn(-c2ccc(F)cc2)c1N)C(F)(F)F)C(=O)c1c(F)cccc1S(C)(=O)=O (racemic) | 103% | 25.1 nM | 10 nM | 50.1 nM | clearance [5]: 9 mL/min/kg; Vd [6]: 2.6 L/kg; bioavailability [7]: 62%
11 | CCN(CC(O)(CNC(=O)c1cnn(-c2ccc(F)cc2)c1N)C(F)(F)F)C(=O)c1c(F)cccc1F (stereo not given) | 104% | 7.94 nM | 2.51 nM | 7.94 nM | clearance [5]: 27 mL/min/kg; Vd [6]: 2.8 L/kg; IC50 [8]: 2000 nM; Activity [9]: 93%; IC50 [10]: 74000 nM; bioavailability [7]: 36%; IC50 [11]: 18000 nM; IC50 [12]: 100000 nM; fraction unbound [13]: 0.03; IC50 [14]: 8000 nM
12 | CCN(CC(O)(CNC(=O)c1cnn(-c2ccc(F)cc2)c1N)C(F)(F)F)C(=O)c1c(Cl)cc(Cl)cc1Cl (racemic) | 100% | 50.1 nM | 25.1 nM | 6.31 nM | –
13 | CCN(CC(O)(CNC(=O)c1cnn(-c2ccc(F)cc2)c1N)C(F)(F)F)C(=O)c1ccc(F)cc1Cl (racemic) | 76% | 316 nM | 100 nM | 20 nM | –
14 | CCN(CC(O)(CNC(=O)c1cnn(-c2ccc(F)cc2)c1N)C(F)(F)F)C(=O)c1ccccc1Cl (stereo in doubt; 13e) [listing 1 of 2 here] | 75% | – | – | – | –
15 | CCN(CC(O)(CNC(=O)c1cnn(-c2ccc(F)cc2)c1N)C(F)(F)F)C(=O)c1ccc(Cl)cc1 (racemic) | – | > 6310 nM | > 10000 nM | 316 nM | –
16 | CCN(CC(O)(CNC(=O)c1cnn(-c2ccc(F)cc2)c1N)C(F)(F)F)C(=O)c1ncccc1Cl (racemic) | – | – | – | – | clearance [5]: 23 mL/min/kg; Vd [6]: 2.8 L/kg; bioavailability [7]: 48%

Row | SMILES | Activity [1] | EC50 [2] | IC50 [3] | IC50 [4] | further results
17 | CCN(CC(O)(CNC(=O)c1cnn(-c2ccc(F)cc2)c1N)C(F)(F)F)C(=O)c1ncccc1Cl (stereo not given) [listing 2 of 2 here] | 99% | – | – | – | –
18 | CCN(CC(O)(CNC(=O)c1cnn(-c2ccc(F)cc2)c1N)C(F)(F)F)C(=O)c1ccccc1 (stereo in doubt; 13b) | – | > 6310 nM | – | 126 nM | pIC50 [3]: < 5
19 | CCN(CC(O)(CNC(=O)c1cnn(-c2ccc(F)cc2)c1N)C(F)(F)F)C(=O)c1ccccc1 (racemic) [listing 1 of 2 here] | 88% | – | – | – | –
20 | CCN(CC(O)(CNC(=O)c1cnn(-c2ccc(F)cc2)c1N)C(F)(F)F)C(=O)c1ccccc1Cl (stereo in doubt; 13d) [listing 1 of 2 here] | – | – | – | – | IC50 [8]: 2000 nM; IC50 [10]: 27000 nM; IC50 [11]: 8000 nM; IC50 [12]: 100000 nM; IC50 [14]: 4000 nM
21 | CCN(CC(O)(CNC(=O)c1cnn(-c2ccc(F)cc2)c1N)C(F)(F)F)C(=O)c1ccccc1Cl (stereo in doubt; 13e) [listing 2 of 2 here] | – | – | – | – | IC50 [8]: 4000 nM; IC50 [10]: 34000 nM; IC50 [11]: 20000 nM; IC50 [12]: 100000 nM; IC50 [14]: 10000 nM
22 | CCN(CC(O)(CNC(=O)c1cnn(-c2ccc(F)cc2)c1N)C(F)(F)F)C(=O)c1ccccc1 (racemic) [listing 2 of 2 here] | – | 50.1 nM | – | 50.1 nM | clearance [5]: 21 mL/min/kg; Vd [6]: 2.5 L/kg; pIC50 [3]: 7.3; bioavailability [7]: 12%
23 | CCN(CC(O)(CNC(=O)c1cnn(-c2ccc(F)cc2)c1N)C(F)(F)F)C(=O)c1ccc2[nH]ccc2c1 (stereo not given) | 100% | 3.16 nM | 1 nM | 6.31 nM | –
24 | CCN(CC(O)(CNC(=O)c1cnn(-c2ccc(F)cc2)c1N)C(F)(F)F)C(=O)c1cccc(Cl)c1 (racemic) | 96% | 251 nM | 31.6 nM | 15.8 nM | –
25 | CCN(CC(O)(CNC(=O)c1cnn(-c2ccc(F)cc2)c1N)C(F)(F)F)C(=O)c1ccccc1 (stereo in doubt; 13c) [listing 2 of 2 here] | – | 25.1 nM | – | 12.6 nM | pIC50 [3]: 8
26 | Nc1c(C(=O)NCC(O)(CN(CCO)C(=O)c2c(Cl)cccc2Cl)C(F)(F)F)cnn1-c1ccc(F)cc1 (stereo not given) | – | – | – | – | IC50 [8]: 100000 nM; Activity [9]: 89%; IC50 [10]: 54000 nM; IC50 [11]: 20000 nM; IC50 [12]: 100000 nM; fraction unbound [13]: 0.07; IC50 [14]: 3000 nM
27 | CCN(CC(O)(CNC(=O)c1cnn(-c2ccc(F)cc2)c1N)C(F)(F)F)C(=O)c1ccccc1S(C)(=O)=O (stereo not given) [listing 1 of 2 here] | 99% | – | – | – | –
28 | CCN(CC(O)(CNC(=O)c1cnn(-c2ccc(F)cc2)c1N)C(F)(F)F)C(=O)c1ccccc1Cl (stereo in doubt; 13d) [listing 2 of 2 here] | 95% | – | – | – | –
29 | CCN(CC(O)(CNC(=O)c1cnn(-c2ccc(F)cc2)c1N)C(F)(F)F)C(=O)c1cccc(F)c1Cl (racemic) | 92% | 50.1 nM | 20 nM | 7.94 nM | –
30 | CCN(CC(O)(CNC(=O)c1cnn(-c2ccc(F)cc2)c1N)C(F)(F)F)C(=O)c1ccccc1S(C)(=O)=O (stereo not given) [listing 2 of 2 here] | – | 158 nM | 20 nM | 63.1 nM | Activity [9]: 81%; IC50 [10]: 96000 nM; IC50 [11]: 87000 nM; IC50 [12]: > 40000 nM; IC50 [14]: 23000 nM
31 | CCN(CC(O)(CNC(=O)c1cnn(-c2ccc(F)cc2)c1N)C(F)(F)F)C(=O)c1ccccc1Cl (racemic) | – | – | – | – | clearance [5]: 32 mL/min/kg; Vd [6]: 4 L/kg; bioavailability [7]: 25%
32 | CCN(CC(O)(CNC(=O)c1cnn(-c2ccc(F)cc2)c1N)C(F)(F)F)C(=O)c1ccccc1S(C)(=O)=O (racemic) | – | – | – | – | clearance [5]: 17 mL/min/kg; Vd [6]: 3.6 L/kg; bioavailability [7]: 77%
